# According to patent publication US6921667B2, “Methods for direct detection of individual methotrexate metabolites” (Prometheus Laboratories, Inc., priority 2003, dated 2005):
# Assay: Red blood cell methotrexate polyglutamate concentrations in patients on low-dose methotrexate, by HPLC fluorometry with post-column photo-oxidation
# Type: in vivo, human
# Conditions: single patient on 17.5 mg weekly methotrexate for at least 3 months; FIG. 4A; packed red blood cells
# Description: The liquid chromatograph was an Agilent 1100 HPLC chemstation system composed of a quaternary pump, a system controller, an autoinjector, a sample cooler kept at 4° C., and a fluorometer. […] Methotrexate polyglutamates were detected with post-column derivatization using a photochemical reactor unit (Aura Industries; New York, N.Y.) equipped with an elongated 254 nm low pressure mercury ultraviolet lamp and containing a 1/16″ outer diameter TEFLON™ tubing (internal diameter 0.25 mm) assembled as a knitted coil and connected on-line between the analytical column and fluorometer. The knitted coil was extended lengthwise through the photochemical reactor unit; all but a portion of the elongated lamp was masked with foil such that only a segment of the knitted coil was irradiated. In particular, the lamp was masked such that only 1 meter of the coil was irradiated with the lamp, which at a flow rate of 1 ml/min corresponded to 3 seconds irradiation. Methotrexate polyglutamate photolytic products were measured at an excitation wavelength of 274 nm and an emission wavelength of 464 nm, unless otherwise indicated. The retention times described herein were measured from time of injection to time of detection at the post-reactor unit fluorometer. […]
# Methotrexate polyglutamate photolytic products were analyzed at an excitation wavelength of 274 nm and an emission wavelength of 464 nm. […]
smiles,measurement,value
"CN(Cc1cnc2nc(N)nc(N)c2n1)c1ccc(C(=O)N[C@@H](CCC(=O)O)C(=O)O)cc1 [MTXPG1, 4-amino-10-methylpteroylglutamic acid]",concentration in red blood cell sample,27 nM
